Test results from ChEMBL document CHEMBL4808205, “Discovery of TAK-041: a Potent and Selective GPR139 Agonist Explored for the Treatment of Negative Symptoms Associated with Schizophrenia” (J Med Chem, 2021).

Legend:
[1] = Free drug concentration in BALB/c mouse brain; assay type: ADME, tissue-based; details: in vivo
[2] = Cmax in rat at 1 mg/kg, iv or 2 mg/kg, po; assay type: ADME, organism-based; set-up: dose 2 mg/kg; details: in vivo
[3] = Volume of distribution in rat at 1 mg/kg, iv or 2 mg/kg, po; assay type: ADME, organism-based; details: in vivo
[4] = Bioavailability in rat at 1 mg/kg, iv; assay type: ADME, organism-based; details: in vivo, po 2 mg/kg vs iv 1 mg/kg
[5] = Oral bioavailability in mouse at 30 mg/kg after 1 hr; assay type: ADME, organism-based; details: in vivo
MDR1 = assay: Apparent permeability in dog MDCK-MDR1 cells; assay type: ADME, cell-based, Canis lupus familiaris
[6] = Lipophilicity, logD of compound; assay type: physicochemical; details: octanol/water
MDR1 (human) = assay: Permeability across apical to basolateral side in pig LLC-PK1 cells expressing human MDR1; assay type: ADME, cell-based, Sus scrofa; details: read-out: permeability

| SMILES | Drug uptake(free) [1] | Cmax [2] | Vd [3] | bioavailability [4] | bioavailability [5] | Papp (MDR1) | logD [6] | Papp A→B (MDR1 (human)) |
| --- | --- | --- | --- | --- | --- | --- | --- | --- |
| COc1cccc2nnn(CC(=O)N[C@@H](C)c3ccc(C)cc3)c(=O)c12 | < 10 nM | 541 ng/mL | 0.4 L/kg | 50% |  |  |  |  |
| C[C@H](NC(=O)Cn1nnc2ccccc2c1=O)c1ccc(C(F)(F)F)cc1 | < 10 nM | 644 ng/mL | 1.4 L/kg | > 100% |  |  |  |  |
| COc1ccc2nnn(CC(=O)N[C@@H](C)c3ccc(C)cc3)c(=O)c2c1 |  | 15 ng/mL | 0.6 L/kg | 2% |  |  |  |  |
| Cc1ccc([C@H](C)NC(=O)Cn2nnc3ccccc3c2=O)cc1 |  | 94 ng/mL | 2.1 L/kg | 27% | 30% |  |  |  |
| O=C(Cn1nnc2ccccc2c1=O)NCCc1ccc(Cl)cc1 |  |  |  |  |  | 9.1 ×10⁻⁶ cm/s |  |  |
| C[C@H](NC(=O)Cn1nnc2ccccc2c1=O)c1ccc(OC(F)(F)F)cc1 [ZELATRIAZIN] | < 10 nM | 961 ng/mL | 1 L/kg | 100% |  |  | 2.4 | 18.3 ×10⁻⁶ cm/s |
